Measured values published in ChEMBL document CHEMBL1149819, “Synthesis and in vivo anti-mutagenic activity of novel melatonin derivatives” (2008).

Experiments:
Conditions in all cases: route intragastric
Mus musculus [1] = assay: Antimutagenic activity in Albino mouse liver assessed as DNA level per gram of tissue at 23.04 mg/kg administered intragastrically for 1 week; format: functional
Mus musculus [2] = assay: Antimutagenic activity in mouse kidney assessed as protein level per gram of tissue at 23.04 mg/kg administered intragastrically for 1 week; format: functional
Mus musculus [3] = assay: Antimutagenic activity in mouse brain assessed as cholinesterase activity per microgram of tissue at 23.04 mg/kg administered intragastrically for 1 week; format: functional
Mus musculus [4] = assay: Antimutagenic activity against cyclophosphamide-induced mutagenicity in mouse brain assessed as protein level per gram of tissue at 23.04 mg/kg administered intragastrically for 1 week; format: functional
Mus musculus [5] = assay: Antimutagenic activity in Albino mouse brain assessed as RNA level per gram of tissue at 23.04 mg/kg administered intragastrically for 1 week; format: functional
Mus musculus [6] = assay: Antimutagenic activity against cyclophosphamide-induced mutagenicity in mouse brain assessed as cholinesterase activity per microgram of tissue at 23.04 mg/kg administered intragastrically for 1 week; format: functional
Mus musculus [7] = assay: Antimutagenic activity against cyclophosphamide-induced mutagenicity in Albino mouse brain assessed as DNA level per gram of tissue at 23.04 mg/kg administered intragastrically for 1 week; format: functional
Mus musculus [8] = assay: Antimutagenic activity against cyclophosphamide-induced mutagenicity in Albino mouse testes assessed as RNA level per gram of tissue at 23.04 mg/kg administered intragastrically for 1 week; format: functional, Testis
Mus musculus [9] = assay: Antimutagenic activity against cyclophosphamide-induced mutagenicity in mouse kidney assessed as protein level per gram of tissue at 23.04 mg/kg administered intragastrically for 1 week; format: functional
Mus musculus [10] = assay: Antimutagenic activity in Albino mouse testes assessed as DNA level per gram of tissue at 23.04 mg/kg administered intragastrically for 1 week; format: functional, Testis
Mus musculus [11] = assay: Antimutagenic activity against cyclophosphamide-induced mutagenicity in mouse liver assessed as protein level per gram of tissue at 23.04 mg/kg administered intragastrically for 1 week; format: functional
Mus musculus [12] = assay: Antimutagenic activity against cyclophosphamide-induced mutagenicity in Albino mouse liver assessed as RNA level per gram of tissue at 23.04 mg/kg administered intragastrically for 1 week; format: functional
Mus musculus [13] = assay: Antimutagenic activity against cyclophosphamide-induced mutagenicity in Albino mouse kidney assessed as RNA level per gram of tissue at 23.04 mg/kg administered intragastrically for 1 week; format: functional
Mus musculus [14] = assay: Antimutagenic activity in mouse liver assessed as protein level per gram of tissue at 23.04 mg/kg administered intragastrically for 1 week; format: functional
Mus musculus [15] = assay: Antimutagenic activity in Albino mouse kidney assessed as RNA level per gram of tissue at 23.04 mg/kg administered intragastrically for 1 week; format: functional
Mus musculus [16] = assay: Antimutagenic activity against cyclophosphamide-induced mutagenicity in Albino mouse liver assessed as DNA level per gram of tissue at 23.04 mg/kg administered intragastrically for 1 week; format: functional
Mus musculus [17] = assay: Antimutagenic activity against cyclophosphamide-induced mutagenicity in Albino mouse kidney assessed as DNA level per gram of tissue at 23.04 mg/kg administered intragastrically for 1 week; format: functional
Mus musculus [18] = assay: Antimutagenic activity in mouse brain assessed as protein level per gram of tissue at 23.04 mg/kg administered intragastrically for 1 week; format: functional
Mus musculus [19] = assay: Inhibition of cyclophosphamide-induced increase in micronuclei/polychromatic erythrocytes count in mouse at 23.04 mg/kg administered intragastrically for 1 week by micronuclei assay; format: functional; set-up: scale not given: the % may be the effect or the level left
Mus musculus [20] = assay: Antimutagenic activity against cyclophosphamide-induced mutagenicity in mouse brain assessed as peroxidase activity per microgram of tissue at 23.04 mg/kg administered intragastrically for 1 week; format: functional
Mus musculus [21] = assay: Antimutagenic activity in Albino mouse brain assessed as DNA level per gram of tissue at 23.04 mg/kg administered intragastrically for 1 week; format: functional
Mus musculus [22] = assay: Antimutagenic activity against cyclophosphamide-induced mutagenicity in mouse testes assessed as protein level per gram of tissue at 23.04 mg/kg administered intragastrically for 1 week; format: functional, Testis
Mus musculus [23] = assay: Antimutagenic activity in Albino mouse liver assessed as RNA level per gram of tissue at 23.04 mg/kg administered intragastrically for 1 week; format: functional
Mus musculus [24] = assay: Antimutagenic activity in mouse brain assessed as peroxidase activity per microgram of tissue at 23.04 mg/kg administered intragastrically for 1 week; format: functional
Mus musculus [25] = assay: Antimutagenic activity in Albino mouse testes assessed as RNA level per gram of tissue at 23.04 mg/kg administered intragastrically for 1 week; format: functional, Testis
Mus musculus [26] = assay: Antimutagenic activity against cyclophosphamide-induced mutagenicity in Albino mouse testes assessed as DNA level per gram of tissue at 23.04 mg/kg administered intragastrically for 1 week; format: functional, Testis
Mus musculus [27] = assay: Antimutagenic activity in Albino mouse kidney assessed as DNA level per gram of tissue at 23.04 mg/kg administered intragastrically for 1 week; format: functional
Mus musculus [28] = assay: Antimutagenic activity against cyclophosphamide-induced mutagenicity in Albino mouse brain assessed as RNA level per gram of tissue at 23.04 mg/kg administered intragastrically for 1 week; format: functional
Mus musculus [29] = assay: Antimutagenic activity in Albino mouse kidney assessed as DNA level per gram of tissue at 18.38 mg/kg administered intragastrically for 1 week; format: functional
Mus musculus [30] = assay: Antimutagenic activity against cyclophosphamide-induced mutagenicity in Albino mouse kidney assessed as DNA level per gram of tissue at 18.38 mg/kg administered intragastrically for 1 week; format: functional
Mus musculus [31] = assay: Antimutagenic activity against cyclophosphamide-induced mutagenicity in mouse liver assessed as protein level per gram of tissue at 18.38 mg/kg administered intragastrically for 1 week; format: functional
Mus musculus [32] = assay: Antimutagenic activity against cyclophosphamide-induced mutagenicity in Albino mouse brain assessed as RNA level per gram of tissue at 18.38 mg/kg administered intragastrically for 1 week; format: functional
Mus musculus [33] = assay: Antimutagenic activity against cyclophosphamide-induced mutagenicity in mouse brain assessed as protein level per gram of tissue at 18.38 mg/kg administered intragastrically for 1 week; format: functional
Mus musculus [34] = assay: Antimutagenic activity against cyclophosphamide-induced mutagenicity in mouse brain assessed as peroxidase activity per microgram of tissue at 18.38 mg/kg administered intragastrically for 1 week; format: functional
Mus musculus [35] = assay: Antimutagenic activity against cyclophosphamide-induced mutagenicity in mouse brain assessed as cholinesterase activity per microgram of tissue at 18.38 mg/kg administered intragastrically for 1 week; format: functional
Mus musculus [36] = assay: Antimutagenic activity in Albino mouse testes assessed as DNA level per gram of tissue at 18.38 mg/kg administered intragastrically for 1 week; format: functional, Testis
Mus musculus [37] = assay: Antimutagenic activity in Albino mouse liver assessed as DNA level per gram of tissue at 18.38 mg/kg administered intragastrically for 1 week; format: functional
Mus musculus [38] = assay: Antimutagenic activity in mouse liver assessed as protein level per gram of tissue at 18.38 mg/kg administered intragastrically for 1 week; format: functional
Mus musculus [39] = assay: Antimutagenic activity in Albino mouse testes assessed as RNA level per gram of tissue at 18.38 mg/kg administered intragastrically for 1 week; format: functional, Testis
Mus musculus [40] = assay: Antimutagenic activity in Albino mouse kidney assessed as RNA level per gram of tissue at 18.38 mg/kg administered intragastrically for 1 week; format: functional
Mus musculus [41] = assay: Antimutagenic activity in mouse brain assessed as cholinesterase activity per microgram of tissue at 18.38 mg/kg administered intragastrically for 1 week; format: functional
Mus musculus [42] = assay: Antimutagenic activity against cyclophosphamide-induced mutagenicity in Albino mouse testes assessed as RNA level per gram of tissue at 18.38 mg/kg administered intragastrically for 1 week; format: functional, Testis
Mus musculus [43] = assay: Antimutagenic activity against cyclophosphamide-induced mutagenicity in Albino mouse kidney assessed as RNA level per gram of tissue at 18.38 mg/kg administered intragastrically for 1 week; format: functional
Mus musculus [44] = assay: Antimutagenic activity in mouse brain assessed as peroxidase activity per microgram of tissue at 18.38 mg/kg administered intragastrically for 1 week; format: functional
Mus musculus [45] = assay: Antimutagenic activity against cyclophosphamide-induced mutagenicity in mouse testes assessed as protein level per gram of tissue at 18.38 mg/kg administered intragastrically for 1 week; format: functional, Testis
Mus musculus [46] = assay: Antimutagenic activity in Albino mouse brain assessed as DNA level per gram of tissue at 18.38 mg/kg administered intragastrically for 1 week; format: functional
Mus musculus [47] = assay: Antimutagenic activity in Albino mouse liver assessed as RNA level per gram of tissue at 18.38 mg/kg administered intragastrically for 1 week; format: functional
Mus musculus [48] = assay: Antimutagenic activity in mouse kidney assessed as protein level per gram of tissue at 18.38 mg/kg administered intragastrically for 1 week; format: functional
Mus musculus [49] = assay: Antimutagenic activity against cyclophosphamide-induced mutagenicity in Albino mouse liver assessed as RNA level per gram of tissue at 18.38 mg/kg administered intragastrically for 1 week; format: functional
Mus musculus [50] = assay: Antimutagenic activity against cyclophosphamide-induced mutagenicity in Albino mouse brain assessed as DNA level per gram of tissue at 18.38 mg/kg administered intragastrically for 1 week; format: functional
Mus musculus [51] = assay: Antimutagenic activity against cyclophosphamide-induced mutagenicity in Albino mouse testes assessed as DNA level per gram of tissue at 18.38 mg/kg administered intragastrically for 1 week; format: functional, Testis
Mus musculus [52] = assay: Inhibition of cyclophosphamide-induced increase in micronuclei/polychromatic erythrocytes count in mouse at 14.16 mg/kg administered intragastrically for 1 week by micronuclei assay; format: functional; set-up: scale not given: the % may be the effect or the level left
Mus musculus [53] = assay: Antimutagenic activity against cyclophosphamide-induced mutagenicity in mouse kidney assessed as protein level per gram of tissue at 18.38 mg/kg administered intragastrically for 1 week; format: functional
Mus musculus [54] = assay: Antimutagenic activity against cyclophosphamide-induced mutagenicity in Albino mouse liver assessed as DNA level per gram of tissue at 18.38 mg/kg administered intragastrically for 1 week; format: functional
Mus musculus [55] = assay: Antimutagenic activity in mouse brain assessed as protein level per gram of tissue at 18.38 mg/kg administered intragastrically for 1 week; format: functional
Mus musculus [56] = assay: Antimutagenic activity in Albino mouse brain assessed as RNA level per gram of tissue at 18.38 mg/kg administered intragastrically for 1 week; format: functional

SMILES: COc1ccc2c(c1)c(CCNC(C)=O)c1sc(-c3c(-c4ccccc4)cnn(-c4ccccc4)c3=N)nn12
- Activity (Mus musculus [1]): 0.35 mg
- Activity (Mus musculus [2]): 8.68 g
- Activity (Mus musculus [3]): 4.21 U
- Activity (Mus musculus [4]): 3.15 g
- Activity (Mus musculus [5]): 0.21 mg
- Activity (Mus musculus [6]): 3.03 U
- Activity (Mus musculus [7]): 0.25 mg
- Activity (Mus musculus [8]): 0.2 mg
- Activity (Mus musculus [9]): 4.96 g
- Activity (Mus musculus [10]): 0.39 mg
- Activity (Mus musculus [11]): 10.03 g
- Activity (Mus musculus [12]): 0.51 mg
- Activity (Mus musculus [13]): 0.4 mg
- Activity (Mus musculus [14]): 10.23 g
- Activity (Mus musculus [15]): 0.47 mg
- Activity (Mus musculus [16]): 0.32 mg
- Activity (Mus musculus [17]): 0.36 mg
- Activity (Mus musculus [18]): 3.2 g
- Activity (Mus musculus [19]): 65%
- Activity (Mus musculus [20]): 5.5 U/min
- Activity (Mus musculus [21]): 0.37 mg
- Activity (Mus musculus [22]): 4.31 g
- Activity (Mus musculus [23]): 0.48 mg
- Activity (Mus musculus [24]): 9.74 U/min
- Activity (Mus musculus [25]): 0.36 mg
- Activity (Mus musculus [26]): 0.31 mg
- Activity (Mus musculus [27]): 0.38 mg
- Activity (Mus musculus [28]): 0.17 mg

SMILES: COc1ccc2c(c1)c(CCNC(C)=O)c1sc(-c3sc(N)c(C#N)c3N)nn12
- Activity (Mus musculus [29]): 0.34 mg
- Activity (Mus musculus [30]): 0.35 mg
- Activity (Mus musculus [31]): 9.26 g
- Activity (Mus musculus [32]): 0.16 mg
- Activity (Mus musculus [33]): 2.53 g
- Activity (Mus musculus [34]): 4.1 U/min
- Activity (Mus musculus [35]): 2.85 U
- Activity (Mus musculus [36]): 0.35 mg
- Activity (Mus musculus [37]): 0.33 mg
- Activity (Mus musculus [38]): 9.81 g
- Activity (Mus musculus [39]): 0.27 mg
- Activity (Mus musculus [40]): 0.28 mg
- Activity (Mus musculus [41]): 3.76 U
- Activity (Mus musculus [42]): 0.2 mg
- Activity (Mus musculus [43]): 0.24 mg
- Activity (Mus musculus [44]): 6.3 U/min
- Activity (Mus musculus [45]): 3.11 g
- Activity (Mus musculus [46]): 0.35 mg
- Activity (Mus musculus [47]): 0.46 mg
- Activity (Mus musculus [48]): 7.17 g
- Activity (Mus musculus [49]): 0.49 mg
- Activity (Mus musculus [50]): 0.22 mg
- Activity (Mus musculus [51]): 0.3 mg
- Activity (Mus musculus [52]): 44%
- Activity (Mus musculus [53]): 4.14 g
- Activity (Mus musculus [54]): 0.29 mg
- Activity (Mus musculus [55]): 2.76 g
- Activity (Mus musculus [56]): 0.19 mg
